In US20170298056A1, “SMALL MOLECULE INHIBITORS OF HIV-1 ENTRY AND METHODS OF USE THEREOF” (Dana-Farber Cancer Institute, Inc., priority 2014, published 2017):
Read-outs that look alike come from different tables or passages of the source.

Tests used:
[1] = test system: JR-FL and KB9 Env chimeras; assay: Viral infection assay, JR-FL/KB9 Env chimeras; assay type: cell-based, HIV-1
Description: (§1) Production of recombinant HIV-1 expressing luciferase. […] After 48 hours, the supernatant was collected, buffered with 50 mM Hepes pH 7.4 (final concentration) and centrifuged for 5 minutes at 750×g and 4° C. The virus-containing supernatant was used directly or frozen at −80° C.
(§2) Viral infection assay. Each test compound was serially diluted in DMSO in a 96-well B&W isoplate (PerkinElmer, Boston, Mass.) using an HP D300 Digital Dispenser, to a final volume of 450 nl. DMSO was used as a control. Viruses pseudotyped with a specific Env were added to each well and incubated briefly at room temperature. Cf2Th-CD4/CCR5 cells were detached with StemPro Accutase Cell Dissociation Reagent (Invitrogen, cat #A11105-01), washed once, and 5000 cells were added to each well. […] Following incubation, the medium was aspirated and cells were lysed with 30 μl of Passive Lysis Buffer (Promega, cat #E1941). The activity of the firefly luciferase, which was used as a reporter protein in the system, was measured with a Centro LB 960 luminometer (Berthold Technologies, Oak Ridge, Tenn.). One hundred microliters of assay buffer (15 mM MgSO4, 15 mM KH2PO4/K2HPO4 pH 7.8, 1 mM ATP and 1 mM DTT) was injected to each well, followed by a 50 μl injection of 1 mM Dluciferin potassium salt (BD Pharmingen, San Jose, Calif.); luminescence was measured for 2 sec. Infection of PBMC was done as above, but 20,000-40,000 cells/well and viruses concentrated by ultracentrifugation were used. After four hours of incubation with viruses, the cells were centrifuged at 200×g for 6 minutes at 4° C., resuspended in 100 μl RPMI-PBMC medium and incubated at 37° C. for an additional 36-40 hours (total 40-44 hours). Supernatant was removed after centrifugation at 400×g for 5 minutes and cells were processed to detect luciferase activity, as described above.

HIV-1JR-FL = assay: Viral infection assay, recombinant HIV-1 pseudotyped with JR-FL Env (wild type and mutants), Cf2Th-CD4/CCR5 cells; assay type: cell-based; conditions: for Fold change: mutant/wild-type IC50
From the text: HIV-1 Env mutants. Mutations were introduced into the plasmid expressing the fulllength HIV-1YU2 or HIV-1JR-FL Envs using the QuikChange II site-directed mutagenesis protocol or the QuikChange multi site-directed mutagenesis kit (Stratagene). The presence of the desired mutations was confirmed by DNA sequencing. All HIV-1 Env residues are numbered based on alignment with the HXBc2 prototypic sequence, according to current convention.
as §1, §2

[2] = Env with KB9 gp120 and JR-FL gp41

O=C(N/N=C/c1ccc(O)cc1)Nc1cccc2nsnc12 [Compound 18A]
sensitivity to inhibition ([1]; Env with JR-FL gp120 and KB9 gp41): nearly as sensitive as the parental JR-FL Env | fold more sensitive than parental KB9 Env [1, 2]: 2 fold | fold resistance relative to JR-FL Env [1, 2]: about 5 fold | sensitivity to inhibition ([1]; major variable loops of JR-FL gp120 grafted onto KB9 Env): nearly as sensitive to 18A inhibition as JR-FL | IC50 (HIV-1JR-FL; Example 8 table, read-out: IC50 (JR-FL)): 3.6 µM | Fold change (HIV-1JR-FL; JR-FL Env D167A): 1.5 | IC50 (HIV-1JR-FL; JR-FL Env D167A, read-out: IC50): 5.3 ± 1.5 µM | Fold change (HIV-1JR-FL; JR-FL Env E153A): 0.9 | IC50 (HIV-1JR-FL; JR-FL Env E153A, read-out: IC50): 3.1 ± 0.7 µM | Fold change (HIV-1JR-FL; JR-FL Env E168K + N188A): 0.7 | Fold change (HIV-1JR-FL; JR-FL Env I109W): 0.4 | IC50 (HIV-1JR-FL; JR-FL Env I109W, read-out: IC50): 1.6 ± 0.8 µM | Fold change (HIV-1JR-FL; JR-FL Env I154A): 4.8 | IC50 (HIV-1JR-FL; JR-FL Env I154A, read-out: IC50): 17.1 ± 0.9 µM | Fold change (HIV-1JR-FL; JR-FL Env I194A): 0.5 | IC50 (HIV-1JR-FL; JR-FL Env I194A, read-out: IC50): 1.8 ± 0.4 µM | Fold change (HIV-1JR-FL; JR-FL Env I424A): 4.5 | IC50 (HIV-1JR-FL; JR-FL Env I424A, read-out: IC50): 16.2 ± 2 µM | Fold change (HIV-1JR-FL; JR-FL Env K155A): 0.6 | IC50 (HIV-1JR-FL; JR-FL Env K155A, read-out: IC50): 2.1 ± 0.9 µM | Fold change (HIV-1JR-FL; JR-FL Env K178A): 0.4 | IC50 (HIV-1JR-FL; JR-FL Env K178A, read-out: IC50): 1.6 ± 0.3 µM | Fold change (HIV-1JR-FL; JR-FL Env L175A): 2.1 | IC50 (HIV-1JR-FL; JR-FL Env L175A, read-out: IC50): 7.7 ± 1.2 µM | Fold change (HIV-1JR-FL; JR-FL Env L179G): 1.8 | IC50 (HIV-1JR-FL; JR-FL Env L179G, read-out: IC50): 6.5 ± 0.7 µM | Fold change (HIV-1JR-FL; JR-FL Env L193A): 5.0 | IC50 (HIV-1JR-FL; JR-FL Env L193A, read-out: IC50): 18.1 ± 2 µM | Fold change (HIV-1JR-FL; JR-FL Env M147A): 1.3 | IC50 (HIV-1JR-FL; JR-FL Env M147A, read-out: IC50): 4.8 ± 1.2 µM | Fold change (HIV-1JR-FL; JR-FL Env M434A): 5.0 | IC50 (HIV-1JR-FL; JR-FL Env M434A, read-out: IC50): 17.9 ± 1.2 µM | Fold change (HIV-1JR-FL; JR-FL Env N136A): 0.5 | IC50 (HIV-1JR-FL; JR-FL Env N136A, read-out: IC50): 1.8 ± 0.1 µM | Fold change (HIV-1JR-FL; JR-FL Env N139A): 0.5 | IC50 (HIV-1JR-FL; JR-FL Env N139A, read-out: IC50): 1.9 ± 0.2 µM | Fold change (HIV-1JR-FL; JR-FL Env N141A): 0.5 | IC50 (HIV-1JR-FL; JR-FL Env N141A, read-out: IC50): 1.7 ± 0.3 µM | Fold change (HIV-1JR-FL; JR-FL Env N156A): 5.2 | IC50 (HIV-1JR-FL; JR-FL Env N156A, read-out: IC50): 18.7 ± 1.5 µM | Fold change (HIV-1JR-FL; JR-FL Env N187A + N188A): 0.7 | Fold change (HIV-1JR-FL; JR-FL Env N188A): 1.2 | IC50 (HIV-1JR-FL; JR-FL Env N188A, read-out: IC50): 4.2 ± 0.8 µM | Fold change (HIV-1JR-FL; JR-FL Env Q114E): 0.9 | IC50 (HIV-1JR-FL; JR-FL Env Q114E, read-out: IC50): 3.4 ± 0.6 µM | Fold change (HIV-1JR-FL; JR-FL Env Q422A): 2.2 | IC50 (HIV-1JR-FL; JR-FL Env Q422A, read-out: IC50): 7.8 ± 1.7 µM | Fold change (HIV-1JR-FL; JR-FL Env R166A): 0.8 | IC50 (HIV-1JR-FL; JR-FL Env R166A, read-out: IC50): 2.9 ± 0.6 µM | Fold change (HIV-1JR-FL; JR-FL Env T143A + S146A): 0.7 | Fold change (HIV-1JR-FL; JR-FL Env T163A + S164A): 0.8 | Fold change (HIV-1JR-FL; JR-FL Env V134A): 0.8 | IC50 (HIV-1JR-FL; JR-FL Env V134A, read-out: IC50): 2.8 ± 2.1 µM | Fold change (HIV-1JR-FL; JR-FL Env V430S): 0.2 | IC50 (HIV-1JR-FL; JR-FL Env V430S, read-out: IC50): 0.7 ± 0.3 µM | Fold change (HIV-1JR-FL; JR-FL Env W112A): 0.8 | IC50 (HIV-1JR-FL; JR-FL Env W112A, read-out: IC50): 2.8 ± 0.7 µM | Fold change (HIV-1JR-FL; JR-FL Env W479A): 0.2 | IC50 (HIV-1JR-FL; JR-FL Env W479A, read-out: IC50): 0.8 ± 0.2 µM | Fold change (HIV-1JR-FL; JR-FL Env Y173A): 0.9 | IC50 (HIV-1JR-FL; JR-FL Env Y173A, read-out: IC50): 3.1 ± 1.2 µM | Fold change (HIV-1JR-FL; JR-FL Env Y177A): 2.8 | IC50 (HIV-1JR-FL; JR-FL Env Y177A, read-out: IC50): 10.2 ± 1 µM | Fold change (HIV-1JR-FL; JR-FL Env Y435A): 3.5 | IC50 (HIV-1JR-FL; JR-FL Env Y435A, read-out: IC50): 12.7 ± 3.5 µM | IC50 (HIV-1JR-FL; JR-FL Env double mutant E168K + N188A, read-out: IC50): 2.4 ± 1.4 µM | IC50 (HIV-1JR-FL; JR-FL Env double mutant N187A + N188A, read-out: IC50): 2.5 ± 0.6 µM | IC50 (HIV-1JR-FL; JR-FL Env double mutant T143A + S146A, read-out: IC50): 2.4 ± 0.2 µM | IC50 (HIV-1JR-FL; JR-FL Env double mutant T163A + S164A, read-out: IC50): 2.7 ± 0.3 µM | Fold change (HIV-1JR-FL; JR-FL Env wild type): 1 | IC50 (HIV-1JR-FL; JR-FL Env wild type, read-out: IC50): 3.6 µM | Therapeutic Index (TI) (HIV-1JR-FL; calculated from IC50 against JR-FL and A-MLV): 15.9 | effect of glycosidase inhibitor treatment of virions on 18A inhibition (HIV-1JR-FL; virions produced in the presence of two glycosidase inhibitors): Neither treatment had a significant effect
